Source: PubChem BioAssay AID1963961 (Molecular Pharmacology Branch, DTP, NCI, 2024)

Tested on: K98450-129-R-PDC multicell spheroids, viability
Assay: Anticancer human tumor K98450-129-R-PDC patient-derived colon adenocarcinoma cell line growth inhibition [PI3K]
Settings: for IC50: curve of first compound; for viability, T/C: stronger effect = lower value
Method in brief: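 High-throughput combination screen: PI3K inhibitors crossed with targeted small molecules on complex spheroids of tumor cells, HUVEC and MSCs at 37 degrees C, 5% CO2. Top concentration was at or near clinical Cmax (otherwise 10 microM), with half-log decrements.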

[1] = second compound 0.0316 µM, first compound 0.000316 µM
[2] = second compound 0.0316 µM, first compound 0.001 µM
[3] = second compound 0.0316 µM, first compound 0.00316 µM
[4] = second compound 0.0316 µM, first compound 0.01 µM
[5] = second compound 0.0316 µM, first compound 0.0316 µM
[6] = second compound 0.0316 µM, first compound 0.1 µM
[7] = second compound 0.1 µM, first compound 0.000316 µM
[8] = second compound 0.1 µM, first compound 0.001 µM
[9] = second compound 0.1 µM, first compound 0.00316 µM
[10] = second compound 0.1 µM, first compound 0.01 µM
[11] = second compound 0.1 µM, first compound 0.0316 µM
[12] = second compound 0.1 µM, first compound 0.1 µM
[13] = second compound 0.316 µM, first compound 0.000316 µM
[14] = second compound 0.316 µM, first compound 0.001 µM
[15] = second compound 0.316 µM, first compound 0.00316 µM
[16] = second compound 0.316 µM, first compound 0.01 µM
[17] = second compound 0.316 µM, first compound 0.0316 µM
[18] = second compound 0.316 µM, first compound 0.1 µM
[19] = second compound 1 µM, first compound 0.000316 µM
[20] = second compound 1 µM, first compound 0.001 µM
[21] = second compound 1 µM, first compound 0.00316 µM
[22] = second compound 1 µM, first compound 0.01 µM
[23] = second compound 1 µM, first compound 0.0316 µM
[24] = second compound 1 µM, first compound 0.1 µM
[25] = second compound 3.16 µM, first compound 0.000316 µM
[26] = second compound 3.16 µM, first compound 0.001 µM
[27] = second compound 3.16 µM, first compound 0.00316 µM
[28] = second compound 3.16 µM, first compound 0.01 µM
[29] = second compound 3.16 µM, first compound 0.0316 µM
[30] = second compound 3.16 µM, first compound 0.1 µM
[31] = second compound 10 µM, first compound 0.000316 µM
[32] = second compound 10 µM, first compound 0.001 µM
[33] = second compound 10 µM, first compound 0.00316 µM
[34] = second compound 10 µM, first compound 0.01 µM
[35] = second compound 10 µM, first compound 0.0316 µM
[36] = second compound 10 µM, first compound 0.1 µM
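Also: spheroids exposed to agents for seven days before read-out.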

CC(=O)c1c(C)c2cnc(Nc3ccc(N4CCNCC4)cn3)nc2n(C2CCCC2)c1=O + Cc1nc(NC(=O)N2CCCC2C(N)=O)sc1-c1ccnc(C(C)(C)C(F)(F)F)c1
IC50 (second compound 0.0316 µM): > 100 nM
IC50 (second compound 0.1 µM): > 100 nM
IC50 (second compound 0.316 µM): > 100 nM
IC50 (second compound 1 µM): > 100 nM
IC50 (second compound 3.16 µM): > 100 nM
IC50 (second compound 10 µM): > 100 nM
viability, T/C [1]: 110%
viability, T/C [2]: 101%
viability, T/C [3]: 104%
viability, T/C [4]: 104%
viability, T/C [5]: 100%
viability, T/C [6]: 97.9%
viability, T/C [7]: 108%
viability, T/C [8]: 95.2%
viability, T/C [9]: 97.9%
viability, T/C [10]: 93.7%
viability, T/C [11]: 106%
viability, T/C [12]: 98%
viability, T/C [13]: 104%
viability, T/C [14]: 107%
viability, T/C [15]: 95.3%
viability, T/C [16]: 93.3%
viability, T/C [17]: 103%
viability, T/C [18]: 99%
viability, T/C [19]: 90%
viability, T/C [20]: 92.9%
viability, T/C [21]: 91.3%
viability, T/C [22]: 89.7%
viability, T/C [23]: 98.8%
viability, T/C [24]: 95.9%
viability, T/C [25]: 88.2%
viability, T/C [26]: 86.8%
viability, T/C [27]: 84.6%
viability, T/C [28]: 86.3%
viability, T/C [29]: 92.1%
viability, T/C [30]: 86.3%
viability, T/C [31]: 79.4%
viability, T/C [32]: 74.6%
viability, T/C [33]: 77.3%
viability, T/C [34]: 79.8%
viability, T/C [35]: 80.9%
viability, T/C [36]: 70.3%

CC(C)n1nc(-c2ccc3oc(N)nc3c2)c2c(N)ncnc21 + Cc1nc(NC(=O)N2CCCC2C(N)=O)sc1-c1ccnc(C(C)(C)C(F)(F)F)c1
IC50 (second compound 0.0316 µM): > 100 nM
IC50 (second compound 0.1 µM): > 100 nM
IC50 (second compound 0.316 µM): > 100 nM
IC50 (second compound 1 µM): > 100 nM
IC50 (second compound 3.16 µM): > 100 nM
IC50 (second compound 10 µM): > 100 nM
viability, T/C [1]: 102%
viability, T/C [2]: 97.8%
viability, T/C [3]: 101%
viability, T/C [4]: 91.2%
viability, T/C [5]: 87.2%
viability, T/C [6]: 75.3%
viability, T/C [7]: 106%
viability, T/C [8]: 95.3%
viability, T/C [9]: 99.5%
viability, T/C [10]: 91%
viability, T/C [11]: 88.8%
viability, T/C [12]: 79.9%
viability, T/C [13]: 95.8%
viability, T/C [14]: 99.5%
viability, T/C [15]: 89.2%
viability, T/C [16]: 90.2%
viability, T/C [17]: 86.4%
viability, T/C [18]: 72.3%
viability, T/C [19]: 88.6%
viability, T/C [20]: 89.5%
viability, T/C [21]: 92.8%
viability, T/C [22]: 80.2%
viability, T/C [23]: 81.9%
viability, T/C [24]: 70%
viability, T/C [25]: 79.4%
viability, T/C [26]: 78%
viability, T/C [27]: 79.5%
viability, T/C [28]: 70.8%
viability, T/C [29]: 77.9%
viability, T/C [30]: 61.2%
viability, T/C [31]: 66.1%
viability, T/C [32]: 70.9%
viability, T/C [33]: 69.8%
viability, T/C [34]: 71.9%
viability, T/C [35]: 64.3%
viability, T/C [36]: 59.2%

CCCS(=O)(=O)Nc1ccc(F)c(C(=O)c2c[nH]c3ncc(-c4ccc(Cl)cc4)cc23)c1F + Cc1nc(NC(=O)N2CCCC2C(N)=O)sc1-c1ccnc(C(C)(C)C(F)(F)F)c1
IC50 (second compound 0.0316 µM): 6040 nM
IC50 (second compound 0.1 µM): 6000 nM
IC50 (second compound 0.316 µM): 5810 nM
IC50 (second compound 1 µM): 5690 nM
IC50 (second compound 3.16 µM): 5330 nM
IC50 (second compound 10 µM): 4790 nM
viability, T/C [5]: 106%
viability, T/C [6]: 98.7%
viability, T/C (second compound 0.0316 µM, first compound 0.316 µM): 101%
viability, T/C (second compound 0.0316 µM, first compound 1 µM): 101%
viability, T/C (second compound 0.0316 µM, first compound 3.16 µM): 124%
viability, T/C (second compound 0.0316 µM, first compound 10 µM): 6.29%
viability, T/C [11]: 108%
viability, T/C [12]: 96.9%
viability, T/C (second compound 0.1 µM, first compound 0.316 µM): 105%
viability, T/C (second compound 0.1 µM, first compound 1 µM): 103%
viability, T/C (second compound 0.1 µM, first compound 3.16 µM): 118%
viability, T/C (second compound 0.1 µM, first compound 10 µM): 5.28%
viability, T/C [17]: 95.8%
viability, T/C [18]: 95.8%
viability, T/C (second compound 0.316 µM, first compound 0.316 µM): 94.1%
viability, T/C (second compound 0.316 µM, first compound 1 µM): 92.8%
viability, T/C (second compound 0.316 µM, first compound 3.16 µM): 120%
viability, T/C (second compound 0.316 µM, first compound 10 µM): 5.66%
viability, T/C [23]: 89.2%
viability, T/C [24]: 90.9%
viability, T/C (second compound 1 µM, first compound 0.316 µM): 94.3%
viability, T/C (second compound 1 µM, first compound 1 µM): 92.9%
viability, T/C (second compound 1 µM, first compound 3.16 µM): 107%
viability, T/C (second compound 1 µM, first compound 10 µM): 6.99%
viability, T/C [29]: 84%
viability, T/C [30]: 85.8%
viability, T/C (second compound 3.16 µM, first compound 0.316 µM): 84.5%
viability, T/C (second compound 3.16 µM, first compound 1 µM): 89%
viability, T/C (second compound 3.16 µM, first compound 3.16 µM): 88.8%
viability, T/C (second compound 3.16 µM, first compound 10 µM): 6.1%
viability, T/C [35]: 70.5%
viability, T/C [36]: 72.8%
viability, T/C (second compound 10 µM, first compound 0.316 µM): 78%
viability, T/C (second compound 10 µM, first compound 1 µM): 71.1%
viability, T/C (second compound 10 µM, first compound 3.16 µM): 76.9%
viability, T/C (second compound 10 µM, first compound 10 µM): 7.67%
